“And” between values parts separate entries of the source, which are not always exact repeats. Equal entries are not always repeated.
Key:
Corn = test: Greenhouse test Procedure VI: biocide and antidote in furrow, herbicide PPI in cover layer (Examples 43-47, 59-61; Tables 42-46, 58-60); format: in vivo; conditions: for safener efficacy, comparison: COUNTER 15G + PURSUIT/co-herbicides, Example 61; for safening: COUNTER 15G/PURSUIT interaction, Example 47
Description: (§1) This procedure describes interaction among herbicide, biocide and antidote when the herbicide is incorporated in a soil cover layer and the biocide and the antidote are applied in a soil furrow containing crop seed before emergence of the crop. The soil and seeding depth were described in Procedure IV. A first container was designated as an untreated control, a second container was designated as a herbicide control, a third container was designated as a herbicide + biocide control and a fourth container as a herbicide + biocide + antidote test container. The biocide and antidote were formulated as granules. The biocide was applied to the soil furrows of the third and fourth containers at an application rate of 1.1 mg of active compound per cm of row. The antidote was applied to the soil furrow of the fourth container at an application rate of 0.37 mg of active compound per cm of row. A measured amount of the herbicide dispersed or dissolved in acetone was applied to a measured quantity of soil. The quantity of soil treated with the herbicide was thoroughly mixed to incorporate the herbicide. Samples of this soil were used to cover the seed beds of the second, third and fourth containers. For each test series, the seed bed of the first container was likewise covered by a soil layer not treated with herbicide and without biocide or antidote in the soil furrow.
(§2) The containers were then placed on a bench in a greenhouse. Watering was by subirrigation plus overhead irrigation after the plants emerged. All treatments were run in duplicate. Plant response was observed according to Procedure IV. Variations in this procedure will be noted in the examples.
In continuing tests to evaluate the variations of this invention, a series of tests were conducted to determine the efficacy of the above safeners in Examples 39-42 to alleviate corn injury induced by the interaction of various additional commercial sulfonylurea herbicides with COUNTER 15G insecticide. In this example, the tests were conducted according to Procedure VI above. In modifications of that procedure, herbicides were applied to soil samples as acetone/water suspensions, incorporated by shaking in a closed container, with subsamples used to cover furrow-treated 10.2 cm pots. Pots were subirrigated followed by overhead misting on days 6-10.
This example was designed to test the safening effect of those above safeners used in this test series to relieve corn injury by negative synergism induced by interaction of COUNTER 15G and three imidazolinone herbicides, i.e., imazaquin and imazapyr (used in the POE tests in Example 41) and AC 263222 (a.i. in CADRE® herbicide). As differing from the tests in Example 41, this test was a PPI test according to Procedure VI described above. Observation of test results (Table 43) were taken thirteen 913) days after in-furrow PPI preparation.
This example describes PPI tests to evaluate said test safeners in this series with analogs of the sulfonamide herbicides tested under POE herbicide application procedures described in Example 42. In these tests, conducted according to Procedure VI described above, Herbicide Nos. 20, 22 and 24 were applied PPI with the insecticide and antidote. Observations of tests results were made thirteen days after PPI initiation.
An additional three (3) sulfonamide herbicide analogs were tested simultaneously and under the same conditions described in Example 45.
Another test of this invention involved the safening effects of the safeners in this series against negative synergy inducted by the interaction of COUNTER 15G and a sulfonylurea herbicide (OUST®), Herbicide No. 13, and PURSUIT, an imidazolinone herbicide, No. 6. Test conditions were the same as those in Examples 43-46. Other procedures for applying herbicidal formulations are as described in Example 42. […]

Velvetleaf (VELE) = test: Greenhouse test Procedure VI (Examples 59-61; Tables 58-60); format: in vivo, Abutilon theophrasti
Description: as §1, §2
The procedure used in this example involved the PPI application of biocide and safener as described in general Procedure VI above. The "primary" herbicide in this test was MON-12000 (Herbi-cide No. 1) in admixture with other herbicides designated as "co-herbicides", which included LASSO® (co-herbicide B); DUAL® (C); acetochlor (A); EPTAM® (D); butylate (E) and PURSUIT® (K).
The in-furrow treatments with blended COUNTER 15G and antidote mixtures was as described in above examples. MON-12000 and the co-herbicides were formulated in acetone and applied as tank mixtures, incorporated into Dupo silt loam soil with a rotary drum mixer. Subsamples were used to cover seeded and in-furrow treated 10.2 cm pots. Pots were placed on greenhouse benches and subirrigated. Plant responses were observed thirteen days after PPI initiation. Test results (average of two replications) are shown in Table 58, wherein giant foxtail (GIFT) was used in place of shattercane.
This test was conducted in the same manner used in Example 59. All biocide and antidote components were the same and in these tests XRD-498 (Herbicide No. 21) was the prime herbicide. Co-herbicides are shown in Table 59 together with test data.
In one other test conducted as described in the preceding examples in this series of tests, the herbicide PURSUIT® was used as the primary herbicide (in the context of this invention) together with the same insecticide and safeners as above and the co-herbicides shown in Table 60, together with test results.

Giant foxtail (GIFT) = test: whole plant or invertebrate; format: in vivo; conditions: for inhibition at 140 g/ha: Setaria faberi, iv, 312 h
[1] = Antidote + Biocide No. 1 in furrow, Herbicide No. 6 0.14 Kg/Ha PPI
[2] = Antidote + Biocide No. 1 in furrow, Herbicide No. 11 0.0044 Kg/Ha PPI
[3] = Antidote + Biocide No. 1 in furrow, Herbicide No. 12 0.0044 Kg/Ha PPI
[4] = Antidote + Biocide No. 1 in furrow, Herbicide No. 13 0.0011 Kg/Ha PPI
[5] = Antidote + Biocide No. 1 in furrow, Herbicide No. 13 0.0022 Kg/Ha PPI
[6] = Antidote + Biocide No. 1 in furrow, Herbicide No. 14 0.07 Kg/Ha PPI
[7] = Antidote + Biocide No. 1 in furrow, Herbicide No. 16 0.07 Kg/Ha PPI, 13 days
[8] = Antidote + Biocide No. 1 in furrow, Herbicide No. 17 0.14 Kg/Ha PPI, 13 days
[9] = Antidote + Biocide No. 1 in furrow, Herbicide No. 18 0.04 Kg/Ha PPI, 13 days
[10] = Antidote + Biocide No. 1 in furrow, Herbicide No. 20 1.12 Kg/Ha PPI, 13 days
[11] = Antidote + Biocide No. 1 in furrow, Herbicide No. 22 0.28 Kg/Ha PPI, 13 days
[12] = Antidote + Biocide No. 1 in furrow, Herbicide No. 24 0.14 Kg/Ha PPI, 13 days
[13] = Antidote + Biocide No. 1 in furrow, Herbicide No. 25 0.14 Kg/Ha PPI, 13 days
[14] = Antidote + Biocide No. 1 in furrow, Herbicide No. 26 2.24 Kg/Ha PPI, 13 days
[15] = Antidote + Biocide No. 1 in furrow, Herbicide No. 28 0.04 Kg/Ha PPI, 13 days
[16] = Herbicide No. 12 0.0044 Kg/Ha PPI + Biocide No. 1 in furrow, no antidote
[17] = Herbicide No. 12 0.0044 Kg/Ha PPI alone, average of two reps

Row | Structure (SMILES) | safening (Corn) | % Inhibition VELE (Velvetleaf (VELE); [1]) | % Inhibition VELE (Velvetleaf (VELE); [2]) | % Inhibition VELE (Velvetleaf (VELE); [3]) | % Inhibition VELE (Velvetleaf (VELE); [4]) | % Inhibition VELE (Velvetleaf (VELE); [5]) | % Inhibition VELE (Velvetleaf (VELE); [6]) | % Inhibition VELE (Velvetleaf (VELE); [7]) | % Inhibition VELE (Velvetleaf (VELE); [8]) | % Inhibition VELE (Velvetleaf (VELE); [9]) | % Inhibition VELE (Velvetleaf (VELE); [10]) | % Inhibition VELE (Velvetleaf (VELE); [11]) | % Inhibition VELE (Velvetleaf (VELE); [12]) | % Inhibition VELE (Velvetleaf (VELE); [13]) | % Inhibition VELE (Velvetleaf (VELE); [14]) | % Inhibition VELE (Velvetleaf (VELE); [15]) | % Inhibition Corn (Corn; [1]) | % Inhibition Corn (Corn; [2]) | % Inhibition Corn (Corn; [3]) | % Inhibition Corn (Corn; [4]) | further results
1 | CC1(C)OC(c2ccco2)CN1C(=O)C(Cl)Cl (stereo not drawn) [Antidote No. 1, Oxazolidine, 3-(dichloroacetyl)-2,2-dimethyl-5-(2-furanyl)-] | good activity | – | – | – | – | – | – | – | – | – | – | – | – | – | – | – | – | – | – | – | safener efficacy, comparison (Corn): more effective than flurazole or MON-4660
2 | COC(=O)COC(c1ccccc1)c1ccccc1 [compound 12] | – | 65% | 70% | 60% | 15% | 60% | 85% | 60% | 80% | 70% | 95% | 75% | 90% | 70% | 55% | 80% | 10% | 10% | 10% | 35% | % Inhibition VELE (Velvetleaf (VELE); [16]): 50%; % Inhibition VELE (Velvetleaf (VELE); [17]): 50%; % Inhibition Corn (Corn; [5]): 55%; % Inhibition Corn (Corn; [6]): 0%; % Inhibition Corn (Corn; [7]): 40%; % Inhibition Corn (Corn; [8]): 10%; % Inhibition Corn (Corn; [9]): 5%; % Inhibition Corn (Corn; [10]): 25%; % Inhibition Corn (Corn; [11]): 0%; % Inhibition Corn (Corn; [12]): 30%; % Inhibition Corn (Corn; [13]): 0%; % Inhibition Corn (Corn; [14]): 5%; % Inhibition Corn (Corn; [15]): 10%; % Inhibition Corn (Corn; [16]): 70%; % Inhibition Corn (Corn; [17]): 40%; % Inhibition GIFT (Giant foxtail (GIFT); […], PPI, 14 days after PPI (Table 34)): 60%; % Inhibition GIFT (Giant foxtail (GIFT); in vivo): 45% and 65% and 75% and 50% and 55% and 70% and 90%
3 | COC(=O)COC(c1ccccc1)c1ccccc1 [Antidote No. 12, Acetic acid, (diphenylmethoxy)-, methyl ester] | good activity | – | – | – | – | – | – | – | – | – | – | – | – | – | – | – | – | – | – | – | safener efficacy, comparison (Corn): more effective than flurazole or MON-4660; safener efficacy (Corn; COUNTER 15G + XRD-498/co-herbicide mixture, Example 60): most effective safener
4 | COC(=O)c1c(Cl)nn(C)c1S(=O)(=O)NC(=O)Nc1nc(OC)cc(OC)n1 [Herbicide No. 1, N-[(4,6-dimethoxypyrimidin-2-yl)aminocarbonyl]-3-chloro-4-methoxycarbonyl-5-sulfonamide, reference compound] | – | – | – | – | – | – | – | – | – | – | – | – | – | – | – | – | – | – | – | – | % Inhibition GIFT (Giant foxtail (GIFT); Herbicide No. 1 0.0175 Kg/Ha PPI alone, Table 19): 15%; % Inhibition GIFT (Giant foxtail (GIFT); Herbicide No. 1 0.0175 Kg/Ha PPI alone, Table 20): 0%; % Inhibition GIFT (Giant foxtail (GIFT); Herbicide No. 1 0.0175 Kg/Ha PPI alone, Table 21): 0%; % Inhibition GIFT (Giant foxtail (GIFT); Herbicide No. 1 0.0175 Kg/Ha PPI alone, Table 22): 0%; inhibition at 140 g/ha (Giant foxtail (GIFT); Herb. No. 1 0.14 kg/Ha alone, PPI, 13 days after planting): 30%; inhibition at 140 g/ha (Giant foxtail (GIFT); Table 51, Herbicide No. 1 0.14 Kg/Ha, where applied Biocide No. 8 8.96 kg/Ha and antidote 4.48 Kg/Ha, all PPI, observed 13 days after treatment): 60%; % Inhibition GIFT (Giant foxtail (GIFT); in vivo): 60% and 65% and 80%
5 | N#CCOc1ccc(Cl)c2cccnc12 [compound 33] | – | 70% | 65% | 60% | 20% | 50% | 85% | 65% | 75% | 40% | 90% | 90% | 95% | 70% | 50% | 80% | 20% | 20% | 20% | 40% | % Inhibition Corn (Corn; [5]): 90%; % Inhibition Corn (Corn; [6]): 10%; % Inhibition Corn (Corn; [7]): 35%; % Inhibition Corn (Corn; [8]): 20%; % Inhibition Corn (Corn; [9]): 5%; % Inhibition Corn (Corn; [10]): 50%; % Inhibition Corn (Corn; [11]): 5%; % Inhibition Corn (Corn; [12]): 40%; % Inhibition Corn (Corn; [13]): 20%; % Inhibition Corn (Corn; [14]): 10%; % Inhibition Corn (Corn; [15]): 30%
6 | CC1(C)OC(c2ccco2)CN1C(=O)C(Cl)Cl (stereo not drawn) [compound 1] | – | 70% | 75% | 55% | 25% | 60% | 85% | 60% | 80% | 50% | 95% | 80% | 90% | 75% | 65% | 90% | 15% | 15% | 20% | 40% | % Inhibition Corn (Corn; [5]): 70%; % Inhibition Corn (Corn; [6]): 10%; % Inhibition Corn (Corn; [7]): 45%; % Inhibition Corn (Corn; [8]): 45%; % Inhibition Corn (Corn; [9]): 10%; % Inhibition Corn (Corn; [10]): 25%; % Inhibition Corn (Corn; [11]): 5%; % Inhibition Corn (Corn; [12]): 25%; % Inhibition Corn (Corn; [13]): 15%; % Inhibition Corn (Corn; [14]): 20%; % Inhibition Corn (Corn; [15]): 20%; % Inhibition GIFT (Giant foxtail (GIFT); […], PPI, 13 days after PPI (Table 31)): 70%; % Inhibition GIFT (Giant foxtail (GIFT); in vivo): 45% and 60% and 85% and 65% and 90% and 55%
7 | O=C(OCc1ccccc1)c1sc(Cl)nc1C(F)(F)F [Antidote No. 7, 5-Thiazolecarboxylic acid, 2-chloro-4-(trifluoromethyl)-, (phenylmethyl) ester] | less effective than the other safeners | – | – | – | – | – | – | – | – | – | – | – | – | – | – | – | – | – | – | – | –

— patent EP0565593B1, “REDUCING PESTICIDAL INTERACTIONS IN CROPS” (priority 1990, dated 1992)
